# Laboratory results: patent US20210038628A1, “NANOPARTICLE COMPOSITIONS” (JANUARY THERAPEUTICS, INC., priority 2018, published 2021)
# pEC50: −log10 of the molar value. Where a name gives a salt, the structure may show the parent alone.
# Test system: BxPC-3 (pancreatic adenocarcinoma) cell line
# Test: Cellular proliferation assay in BxPC-3 cells (Cell-Titer Glo)
# Type: cell-based
# Details: Homo sapiens, 120 hours incubation, Cell-Titer Glo luminescence
# Procedure: Compounds are tested for their ability to impair cancer cell proliferation and/or induce cell death. For cellular proliferation studies, cultured cells are treated with the test compound for 24-120 hours. After compound treatment, cell proliferation is assessed by using methods including, but not limited to, Cell-Titer-Glo® (Promega), Alamar Blue, LIVE/DEAD® (ThermoFisher), BrdU incorporation, and live-cell imaging. The cancer lines used include, but are not limited to BxPC-3 (pancreatic cancer). Gemcitabine Hydrochloride serves as a control for activity.
# BxPC-3 (pancreatic adenocarcinoma) cell line was purchased from the American Type Culture Collection (Catalog #CRL-1687) and grown in RPMI-1640 medium (e.g. Corning #10-040-CV) with 10% Heat Inactivated Fetal Calf Serum at 37° C. and 5% CO2 (as recommended by the ATCC).
# Cultures were grown in […] plates to 80% confluence, and cells were trypsinized to a single-cell suspension. Cells were then resuspended in growth medium to a density of […]. They were then plated into 96-well assay plates (Corning #3917) in a volume of 100 ul/well (2,500 cells/well). Cells were allowed to adhere to plates for 24 h at 37° C. and 5% CO2). Compounds were then added to the wells using an […] serial dilution scheme (over 9 dilutions, generally ranging from 30 μM-30 pM), and the cells were incubated for an additional 120 hours. After 120 h, 90 ul of Cell-Titer Glo reagent (Promega #G7572) was added, and the plates were read using a luminescence counter (e.g., BioTek Synergy HTX at 100 ms read time).
row,pEC50,SMILES
1,8.00 to 9.00,CCCCCCCCCCCCC(=O)O[C@@H]1[C@@H](COP(=O)(OCOC(=O)CC(C)(C)C)OCOC(=O)CC(C)(C)C)O[C@@H](n2ccc(N)nc2=O)C1(F)F [Compound 17]
2,> 9.00,CCCCCCCCCCCCCCC(=O)OC1[C@@H](COP(=O)(OCOC(=O)CC(C)(C)C)OCOC(=O)CC(C)(C)C)O[C@@H](n2ccc(N)nc2=O)C1(F)F (stereo partly shown) [Compound 27]
3,8.00 to 9.00,"Nc1ccn([C@@H]2O[C@H](CO)[C@@H](O)C2(F)F)c(=O)n1 [Gemcitabine Hydrochloride, reference compound]"

row,SMILES,pEC50
1,"CCCCCCCCCCCCCCCCCCC(=O)O[C@@H]1[C@@H](COP2(=O)OCc3ccccc3O2)O[C@@H](n2ccc(N)nc2=O)C1(F)F (stereo partly drawn) [Compound 16, (2R,3R,5R)-5-(4-amino-2-oxopyrimidin-1(2H)-yl)-4,4-difluoro-2-(((2-oxido-4H-benzo[d][1,3,2]dioxaphosphinin-2-yl)oxy)methyl)tetrahydrofuran-3-yl Nonadecanoate]",> 9.00
